Test results taken from patent US20220315554A1, “COMPOUNDS COMPRISING A […] LIGAND AND USE THEREOF” (priority 2019, published 2022).
Numbered stars: 1 amine (or outer) side, 2 acyl side, 3 side chain; on linkers, the order of the positions; unused ones are H or OH. Bridge positions count the residues as written; N and C are the ends. Square brackets hold non-standard residues; d marks the D form. Peptide text beside a SMILES is read from it. * marks the point of attachment. TBMB(SCH2CH2NH-DOTA) = O=C(O)CN1CCN(CC(=O)O)CCN(CC(=O)NCCSCc2cc(C[*:1])cc(C[*:2])c2)CCN(CC(=O)O)CC1; X4 = O=C1CN2CCN3CCN(CC(=O)N4CCN(Cc5cc(C[*:1])cc(C[*:2])c5)CC4)CCN(CC2)CC(=O)[O][In]([O]1)[O]C(=O)C3; X2 = O=C(O)CN1CCN(CC(=O)O)CCN(CC(=O)NCCCOCCOCCOCCCN*)CCN(CC(=O)O)CC1; mXylylene = c1cc(C[*:1])cc(C[*:2])c1; Suc = O=C(CCC(=O)[*:2])[*:1]; 4Amb = NCc1ccc(C(=O)O)cc1; Nle = CCCC[C@H](N)C(=O)O; Hexanoyl = CCCCCC(=O)*

Key:
[1] = Plasma stability assay, mouse plasma; type: in vitro ADME; conditions: 37° C., read-out: % intact compound remaining after incubation, Mouse plasma; for remaining at 24 h, 9.8 µM: 24 h incubation
[2] = target: T1, FAP-expressing human WI-38 fibroblasts (Homo sapiens, UniProt Q12884); assay: Competitive FACS binding assay; conditions: pIC50 Category (FACS), competition with 3 nM Cy5-labeled compound, WI-38 fibroblasts, 4° C., 1 hour
T1 construct: FAP-expressing human WI-38 fibroblasts (ECACC) were cultured in EMEM; host or cells: WI-38 human fibroblasts
T1 sequence (Q12884 1-760): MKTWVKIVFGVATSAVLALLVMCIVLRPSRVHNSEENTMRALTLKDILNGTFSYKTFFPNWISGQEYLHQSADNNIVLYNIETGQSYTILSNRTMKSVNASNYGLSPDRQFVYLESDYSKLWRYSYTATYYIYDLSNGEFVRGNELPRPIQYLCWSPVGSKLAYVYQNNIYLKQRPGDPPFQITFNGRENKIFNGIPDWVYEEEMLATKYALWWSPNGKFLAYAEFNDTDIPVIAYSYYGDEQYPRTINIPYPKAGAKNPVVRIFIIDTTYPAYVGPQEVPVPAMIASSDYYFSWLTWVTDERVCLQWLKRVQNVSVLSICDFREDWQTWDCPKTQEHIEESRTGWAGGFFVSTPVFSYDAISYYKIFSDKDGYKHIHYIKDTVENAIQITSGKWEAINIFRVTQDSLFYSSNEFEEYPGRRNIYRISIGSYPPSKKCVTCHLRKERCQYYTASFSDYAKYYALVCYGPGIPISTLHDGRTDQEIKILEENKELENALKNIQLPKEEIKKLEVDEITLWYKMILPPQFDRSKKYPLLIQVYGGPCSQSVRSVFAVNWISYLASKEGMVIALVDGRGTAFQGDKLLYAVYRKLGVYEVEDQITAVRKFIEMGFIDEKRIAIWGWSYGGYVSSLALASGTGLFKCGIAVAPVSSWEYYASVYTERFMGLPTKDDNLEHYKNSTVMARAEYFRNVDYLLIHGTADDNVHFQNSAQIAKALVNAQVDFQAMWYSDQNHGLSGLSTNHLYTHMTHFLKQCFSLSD
Protocol: Cells were analyzed in an Attune NxT flow cytometer. […]

Human recombinant FAP [3] = target: T2, Human recombinant FAP (Homo sapiens, UniProt Q12884); assay: Surface plasmon resonance (Biacore) assay; type: binding
T2 sequence (Q12884 1-760): T1 sequence (Q12884 1-760)

recombinant human PREP = target: T3, recombinant human PREP (Homo sapiens, UniProt P48147); assay: PREP protease activity assay; type: biochemical
T3 construct: purchased R&D systems 4308-SE
T3 sequence (P48147 1-710): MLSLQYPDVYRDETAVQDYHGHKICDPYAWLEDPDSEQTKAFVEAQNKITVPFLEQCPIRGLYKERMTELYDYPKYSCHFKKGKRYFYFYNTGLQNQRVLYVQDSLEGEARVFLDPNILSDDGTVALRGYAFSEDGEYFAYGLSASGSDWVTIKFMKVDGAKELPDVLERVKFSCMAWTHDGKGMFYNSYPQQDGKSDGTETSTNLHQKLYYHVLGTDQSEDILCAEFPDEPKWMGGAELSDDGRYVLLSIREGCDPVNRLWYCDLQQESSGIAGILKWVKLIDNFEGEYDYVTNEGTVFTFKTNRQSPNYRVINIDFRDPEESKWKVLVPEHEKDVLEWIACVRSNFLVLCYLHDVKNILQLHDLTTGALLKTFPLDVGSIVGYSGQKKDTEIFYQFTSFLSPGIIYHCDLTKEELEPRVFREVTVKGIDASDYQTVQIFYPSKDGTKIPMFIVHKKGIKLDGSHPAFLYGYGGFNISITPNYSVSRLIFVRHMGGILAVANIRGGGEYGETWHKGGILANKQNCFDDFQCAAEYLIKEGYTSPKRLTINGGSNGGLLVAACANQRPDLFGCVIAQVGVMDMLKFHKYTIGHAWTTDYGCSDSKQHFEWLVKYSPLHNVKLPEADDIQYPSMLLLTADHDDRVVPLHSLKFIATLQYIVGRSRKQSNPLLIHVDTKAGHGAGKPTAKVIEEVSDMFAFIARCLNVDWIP

Recombinant human DPP4 = target: T4, Recombinant human DPP4 (Homo sapiens, UniProt P27487); assay: DPP4 protease activity assay; type: biochemical
T4 construct: purchased R&D systems 9168-SE
T4 sequence (P27487 whole entry): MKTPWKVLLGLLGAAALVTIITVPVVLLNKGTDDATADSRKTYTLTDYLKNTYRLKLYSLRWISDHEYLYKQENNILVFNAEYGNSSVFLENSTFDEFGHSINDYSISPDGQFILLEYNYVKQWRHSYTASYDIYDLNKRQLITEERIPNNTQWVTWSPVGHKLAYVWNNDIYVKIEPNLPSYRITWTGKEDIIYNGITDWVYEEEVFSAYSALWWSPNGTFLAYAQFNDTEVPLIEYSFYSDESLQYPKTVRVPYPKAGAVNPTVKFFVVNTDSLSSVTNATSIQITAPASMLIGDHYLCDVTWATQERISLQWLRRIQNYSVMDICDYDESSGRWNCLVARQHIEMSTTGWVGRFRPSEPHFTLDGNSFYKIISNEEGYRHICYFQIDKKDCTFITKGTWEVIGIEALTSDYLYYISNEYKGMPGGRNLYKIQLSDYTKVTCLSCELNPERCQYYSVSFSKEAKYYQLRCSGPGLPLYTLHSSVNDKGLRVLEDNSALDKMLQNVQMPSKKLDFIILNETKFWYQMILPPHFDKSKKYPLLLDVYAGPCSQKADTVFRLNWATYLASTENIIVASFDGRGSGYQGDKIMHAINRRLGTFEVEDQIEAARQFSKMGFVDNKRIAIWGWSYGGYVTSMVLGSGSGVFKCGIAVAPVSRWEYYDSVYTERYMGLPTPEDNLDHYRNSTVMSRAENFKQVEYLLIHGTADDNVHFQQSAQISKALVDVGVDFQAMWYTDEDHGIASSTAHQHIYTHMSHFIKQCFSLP

Human recombinant FAP [4] = target: T2, Human recombinant FAP; assay: FRET-based FAP protease activity assay; type: biochemical; design: purchased R&D systems 3715-SE; conditions: pIC50 Category (Activity), recombinant human FAP, FRET substrate, 37° C.
[5] = Plasma stability assay, human plasma; type: in vitro ADME; conditions: 24 h incubation, 37° C., read-out: % intact compound remaining after incubation, Human plasma
in vitro = conditions: rat, plasma

remaining at 4 h, 9.8 µM ([1]; 4 h incubation) [%]	SMILES	IC50 [2] [nM]	Kd (Human recombinant FAP [3]) [nM]	IC50 (recombinant human PREP) [nM]	IC50 (Recombinant human DPP4) [nM]	IC50 (Human recombinant FAP [4]) [nM]	remaining at 24 h, 9.8 µM [5] [%]	remaining at 24 h, 9.8 µM [1] [%]	remaining at 24 h, 9.8 µM (in vitro) [%]
94	CCCC[C@H](NC(=O)CCC(=O)NCCCOCCOCCOCCCNC(=O)CN1CCN(CC(=O)O)CCN(CC(=O)O)CCN(CC(=O)O)CC1)C(=O)N[C@H]1CSCc2cccc(c2)CSC[C@@H](C(=O)N[C@@H](CC(=O)O)C(=O)NCc2ccc(C(=O)N[C@@H](CCCNC(=N)N)C(N)=O)cc2)NC(=O)[C@H](Cc2ccccc2)NC(=O)[C@H](CCC(=O)O)NC(=O)[C@H]([C@@H](C)O)NC(=O)[C@@H]2CCCN2C(=O)[C@@H]2CCCN2C1=O [3BP-3321, DOTA-Ttds-Nle-[Cys(3MeBn)-Pro-Pro-Thr-Glu-Phe-Cys]-Asp-Pamb-Arg-NH2] ({X2-Suc}-[Nle]CPPTEFCD[4Amb]R-NH2; linker 2-8 via mXylylene)	< 10	< 10	> 1000	> 1000	< 10	–	–	–
–	CCCCCC(=O)N[C@H]1CSCc2cccc(c2)CSC[C@@H](C(=O)N[C@@H](CCCCNC(=O)CN2CCN(CC(=O)O)CCN(CC(=O)O)CCN(CC(=O)O)CC2)CC(=O)O)NC(=O)[C@H](Cc2ccccc2)NC(=O)[C@H](CCC(N)=O)NC(=O)[C@H]([C@@H](C)O)NC(=O)[C@@H]2CCCN2C(=O)[C@@H]2CCCN2C1=O [3BP-3397, Hex-[Cys(3MeBn)-Pro-Pro-Thr-Gln-Phe-Cys]-Bhk(DOTA)-OH]	< 10	< 10	> 1000	> 1000	< 10	100	92	–
–	CCCC[C@H](NC(=O)CCC(=O)NCCCOCCOCCOCCCNC(=O)CN1CCN(CC(=O)O)CCN(CC(=O)O)CCN(CC(=O)O)CC1)C(=O)N[C@H]1CSCc2cccc(c2)CSC[C@@H](C(=O)NCCC(=O)O)NC(=O)[C@H](Cc2ccccc2)NC(=O)[C@H](CCC(N)=O)NC(=O)[C@H]([C@@H](C)O)NC(=O)[C@@H]2CCCN2C(=O)[C@@H]2CCCN2C1=O [3BP-3398, DOTA-Ttds-Nle-[Cys(3MeBn)-Pro-Pro-Thr-Gln-Phe-Cys]-Bal-OH]	< 10	< 10	> 1000	> 1000	< 10	99	94	–
–	CCCCCC(=O)N[C@H]1CSCc2cc(CSCCNC(=O)CN3CCN(CC(=O)O)CCN(CC(=O)O)CCN(CC(=O)O)CC3)cc(c2)CSC[C@@H](C(=O)N[C@@H](CC(=O)O)C(N)=O)NC(=O)[C@H](Cc2ccccc2)NC(=O)[C@H](CCC(N)=O)NC(=O)[C@H]([C@@H](C)O)NC(=O)[C@@H]2CCCN2C(=O)[C@@H]2CCCN2C1=O [3BP-3426, Hex-[Cys(tMeBn(DOTA-AET))-Pro-Pro-Thr-Gln-Phe-Cys]-Asp-NH2] (Hexanoyl-CPPTQFCD-NH2; linker 1-7 via TBMB(SCH2CH2NH-DOTA))	< 10	< 10	> 1000	> 1000	< 10	–	73	–
–	CCCCCC(=O)N[C@H]1CSCc2cc(cc(CN3CCN(C(=O)CN4CCN5CCN6CCN(CC4)CC(=O)[O][In]([O]C(=O)C6)[O]C(=O)C5)CC3)c2)CSC[C@@H](C(=O)N[C@@H](CC(=O)O)C(N)=O)NC(=O)[C@H](Cc2ccccc2)NC(=O)[C@H](CCC(N)=O)NC(=O)[C@H]([C@@H](C)O)NC(=O)[C@@H]2CCCN2C(=O)[C@@H]2CCCN2C1=O [3BP-3590, Indium-Complex of Hex-[Cys(tMeBn(DOTA-PP))-Pro-Pro-Thr-Gln-Phe-Cys]-Asp-NH2] (Hexanoyl-CPPTQFCD-NH2; linker 1-7 via X4)	< 10	< 10	–	–	< 10	94	100	100
